Structures can show the parent of a compound that is named as a salt.
Legend:
neonatal cardiomyocytes = assay: Myocyte calcium-contractility assay (cardiomyocyte beating anoxia assay); assay type: cell-based, rat; settings: 16 hr anoxia, 2 hr reoxygenation; for Percent Activity: at dose for max. activity, Fluo-4 fluorescence
Protocol: 10× Heart Dissection Solution (HDS) contains the following components (g/l) in tissue culture grade water: NaCl, 68; HEPES, 47.6; NaH2PO4, 2; Glucose, 10; KCl, 4; MgSO4, 1, pH adjusted to 7.4. Prior to filter sterilization of diluted (1× HDS) solution, 10 mg phenol red was added to each 500 milliliters of medium. Transferrin and Bovine Insulin were obtained from Life Technologies, and resuspended at a concentration of 4 mg/ml in tissue culture grade water. DMEM-F12- DMEM/F12, powder, 1:1 containing glutamine and pyridoxine hydrochloride was purchased from Life Technologies. To one liter equivalent of the powder was added 2.43 g of sodium bicarbonate and 10 ml of 100× Penicillin/Streptomycin in 950 ml of tissue culture grade water with stirring. The pH was adjusted to 7.2 with 1M HCl and volume was adjusted to 1 liter. The solution was filter sterilized then 2.5 ml of 4 mg/ml Transferrin, 250 μl 4 mg/ml Insulin and 30.7 mg of bromodeoxyuridine were added. DMEM-F12 was also prepared with 4% FBS for pre-coating the tissue culture plates and initial suspension of the cardiomyocyte pellet. Collagenase solution-49 mg of collagenase was resuspended in 120 ml 1× HDS.
Tissue culture plasticware was pre-coated with DMEM-F12-4% FBS by incubating 50 μl per well of a 96-well plate. Two-day old rat pups were removed from their mothers and placed in a sterile container. Pups were dipped quickly into 70% alcohol, then decapitated and the body was placed in an empty sterile tissue culture dish. An incision was made starting at the neck and progressing towards the belly, cutting through the sternum. The heart was removed and placed in a tissue culture dishes containing 1× HDS. The atria were trimmed, and the remaining ventricles were placed into a separate tissue culture dish containing 1× HDS, where they were sectioned into 3-4 pieces each. Ventricles were then transferred to a sterile 250 ml glass flask and the 1× HDS was removed. Twenty milliliters of pre-warmed collagenase solution were added to the ventricles, followed by incubation at 37° C. with shaking. After 30 minutes, the collagenase solution was removed and replaced with 20 ml fresh pre-warmed collagenase. Incubation was continued for an additional 20 minutes. At the end of the incubation, any tissue chunks were allowed to settle prior to removing the collagenase (containing the isolated cardiomyocytes) from the disrupted tissue pieces. The isolated myocytes were added to a 50 ml Falcon tube containing 2 ml Fetal Bovine Serum (FBS). The remaining tissue pieces were subjected to a second digestion by adding 20 ml fresh pre-warmed collagenase and incubating as above for 20 minutes. This second digest was then centrifuged at 1000 rpm for 10 minutes in a GH 3.8 A rotor in an Allegra 6 Centrifuge (Beckman Instruments, Fullerton, Calif.). The resulting supernatant was discarded, and the cell pellet was suspended with 4 ml FBS. The resulting cell suspension was placed in the incubator at 37° C. This step was repeated several additional times to harvest additional material.
Percoll gradients were prepared by adding 2.5 ml of 10× HDS to 22.5 ml of Percoll (Life Technologies) with mixing (Percoll Stock). Top Gradient solution (11 ml Percoll Stock and 14 ml 1× HDS) and Bottom Gradient solution (13 ml Percoll Stock and 7 ml 1× HDS) were prepared. Four milliliters of the Top Gradient solution were transferred into 6×15 ml sterile Falcon tubes. Three milliliters of the Bottom Gradient solution were placed in each tube by inserting a serological pipette to the bottom of the tube and slowly adding the liquid.
All the digests (5 in total) were pooled in one 50 ml Falcon tube and centrifuged on a tabletop Allegra 6 Centrifuge (Beckman Instruments, Fullerton, Calif.) using a GH 3.8 A rotor at 1000 rpm for 10 minutes. The supernatant was discarded, and the cell pellet was resuspended in 12 ml of 1× HDS. Two milliliters of the cell suspension was added to the top of each gradient. […]

[1] = test system: primary hippocampal neuronal cells; assay: Hippocampal anoxia-reoxygenation cell death assay; assay type: cell-based, mice; settings: for Dose for Max. Activity / Percent Activity: 5 hr hypoxia, 20-24 hr reoxygenation; for Percent Activity: at dose for max. activity, live neurons by Cell Tracker Green; for cell viability: compared to hypoxia-reoxygenated cells
Protocol: Neurobasal medium (Life Technologies, Rockville, Md.) with 1× B27 supplement (Life Technologies), […], 25 μM L-glutaxnic acid, and 1× Penicillin/Streptomycin was prepared fresh prior to use. Hank's Basic Salt Solution (HBSS, Ca/Mg-free) was prepared by preparing 1× Hanks CMF (Gibco) supplemented with HEPES (10 mM, pH 7.3), sodium bicarbonate (0.35%), 1× Penicillin/Streptomycin, and 1 mM pyruvate. Poly-D-lysine (Sigma, St. Louis, Mo.) was prepared by filtering a 50 μg/ml solution through 0.2 μm filter tubes. Sigmacote (Sigma, St. Louis, Mo.). Plastic Culture Flasks (T75 cm^2) or 12-well cell culture plates were then treated with Poly-D-Lysine (Sigma, St. Louis, Mo.).
Pregnant female mice (E18-E19) were euthanized with CO2 prior to removal of the uterus, which was then placed in a sterile plastic petri dish. The embryos were removed from the sac, and the embryonic brains removed and immersed in cold (4° C.) Hepes Buffered Salt Solution (HBSS; Ca/Mg free; Life Technologies) in a small petri dish. Hippocampi were then removed from the brains under a dissecting microscope and were placed on a paraffin-covered dish. The meninges were stripped away and the dissected hippocampi were collected in a small petri dish in HBSS. The hippocampi were transferred to a 15-ml centrifuge tube (normally 10-12 brains per tube) filled with HBSS. The tube containing the brains was centrifuged at 1000 rpm for 2 minutes in a GH 3.8 A rotor in an Allegra Centrifuge (Beckman Instruments, Fullerton, Calif.). The supernatant was removed, 2 ml of HBSS was added to the hippocampi in the tube, and the resulting suspension was triturated 2 times each with long-tipped siliconized glass pipettes having progressively smaller apertures, starting with a pipette with a standard size opening (approximately 1.0 mm diameter), following with one having an aperture of half standard size (approximately 0.5 mm diameter), then with one having an aperture about one-half that size (0.25 mm diameter). The suspension was then centrifuged again at 1000 rpm for 2 min in a tabletop centrifuge, the supernatant was discarded, and 2 ml of Neurobasal/B27i (with antibiotics) was added to the tube. The trituration procedure described above was then repeated on this suspension.
The density of cells was determined on a small aliquot of cells using standard counting procedures and correcting for cell viability by trypan blue stain exclusion. Using this procedure, the expected yield is 3×10^5-6×10^5 cells/brain. Cells were then added to PDL-coated 12 well plates, flasks or MetTek dishes in Neurobasal/B27I at a density of about 1.5×10^6 cells (T75 flask) or about 100,000 cells/well of a 12-well plate. Plated cells were incubated at 37° C. with 5% CO2 in air atmosphere. Media was renewed after 3-4 days by replacing half of it with fresh Neurobasal/B27m medium, containing 5 μM cytosine arabinoside (AraC). Seven to eight days from the initial culture, the media was renewed again, by removing one-half or it and replacing with an equal amount of fresh Neurobasal/B27m medium (without Ara-C).
This assay was used to induce ischemia by anoxia-reoxygenation in cultured hippocampal neuronal cells. Test compounds were added to assess potency and efficacy against ischemia-induced neuronal cell injury and cell death.
Neurobasal media, NoG neurobasal media, B27 supplement and B27 Supplement minus AO were obtained from Life Technologies. Neurobasal/B27 medium was prepared with 2× B27 minus AO supplement, 0.5 mM L-glutamine and 0.25× penicillin/streptomycin. Cell Tracker Green was obtained from Molecular Probes and a fresh 5 μM solution was prepared from 10 mM stock just before use. NoG-Neurobasal contains NoG neurobasal medium plus 0.5 mM glucose, 0.1 mM L-glutamine and 0.25× Penicillin/Streptomycin. Primary hippocampal neuronal cells were prepared according to the methods described above and were cultured in poly-D-lysine coated 12 well plates for 10-11 days prior to use. […]

[2] = target: T1, 15-human lipoxygenase (15-HLO) (Homo sapiens, UniProt P16050); assay: 15-human lipoxygenase (15-HLO) inhibition assay; assay type: biochemical; settings: 3 μM linoleic acid, pH 7.5, approx. 22° C.
T1 construct: made in house
T1 sequence (P16050 1-662): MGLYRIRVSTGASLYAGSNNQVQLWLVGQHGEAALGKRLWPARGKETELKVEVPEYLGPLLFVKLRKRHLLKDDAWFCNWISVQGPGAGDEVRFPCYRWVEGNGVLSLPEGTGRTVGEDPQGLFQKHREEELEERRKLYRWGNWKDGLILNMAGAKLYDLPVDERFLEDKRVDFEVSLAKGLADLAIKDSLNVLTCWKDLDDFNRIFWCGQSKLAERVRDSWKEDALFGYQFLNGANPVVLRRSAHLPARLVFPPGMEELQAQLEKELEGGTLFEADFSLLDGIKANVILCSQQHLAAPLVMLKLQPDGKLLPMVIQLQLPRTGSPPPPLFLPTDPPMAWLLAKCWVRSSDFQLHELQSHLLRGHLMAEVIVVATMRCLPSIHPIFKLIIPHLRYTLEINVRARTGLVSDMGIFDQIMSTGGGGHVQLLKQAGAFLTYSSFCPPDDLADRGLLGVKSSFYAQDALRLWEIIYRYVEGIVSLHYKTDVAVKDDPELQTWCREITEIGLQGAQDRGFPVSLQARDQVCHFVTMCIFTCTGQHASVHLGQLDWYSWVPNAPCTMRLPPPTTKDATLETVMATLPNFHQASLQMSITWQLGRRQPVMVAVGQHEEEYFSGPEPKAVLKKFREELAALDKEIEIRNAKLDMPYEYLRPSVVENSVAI
Protocol: 15-human lipoxygenase (15-HLO) was expressed and purified as described by Holman et al., J. Am. Chem. Soc. […] 15-HLO enzyme activity was determined by direct measurement of the product formation of a 3 μM linoleic acid solution by monitoring the increase of absorbance at 234 nm in 25 mM Hepes (pH 7.5), 0.2% (g/L) cholic acid. All reactions were performed in 2 ml of buffer (approx. 200 nM 15-HLO) under constant stirring at approximately 22° C. IC50 values were determined by measuring the enzymatic rate at a variety of inhibitor concentrations (depending upon inhibitor potency) and plotting their corresponding values versus inhibitor concentration. The corresponding data was fit to a simple saturation curve and the inhibitor concentration at 50% activity was determined. The subject inhibitors used in the assay were dissolved in MeOH at a concentration of approximately 25 mg/ml.

SMILES | Percent Activity (neonatal cardiomyocytes) | Dose for Max. Activity [1] [µg/mL] | Percent Activity [1] | cell viability [1] | Dose for Max. Activity (neonatal cardiomyocytes) [µg/mL] | cell viability (neonatal cardiomyocytes) | IC50 [2] [nM]
CC(C)=CCC/C(C)=C/CCC1=CC(=O)OC1O (racemic) [Dictyodendrillin B (11), 4-(4,8-dimethyl-nona-3,7-dienyl)-5-hydroxy-5H-furan-2-one] | No activity at 100 μg/mL | 0.1 | 56% | increased cell viability | – | – | –
CC(C)=CCC/C(C)=C/CCC1=CC(O)OC1=O (racemic) [Dictyodendrillin C (12), 3-(4,8-dimethyl-nona-3,7-dienyl)-5-hydroxy-5H-furan-2-one] | 46% | – | – | – | 100 | increased cell viability | –
CC(C)=CCC[C@@]1(C)CCC[C@]2(C)[C@@H](Cc3cc(C(=O)O)ccc3O)C(C)=CC[C@@H]12 [(−)-jaspic acid (4), 4-hydroxy-3-[2,5,8a-trimethyl-5-(4-methyl-pent-3-enyl)-1,4,4a,5,6,7,8,8a-octahydro-naphthalen-1-ylmethyl]-benzoic acid] | 59% | 1 | 63% | increased cell viability | 3 | increased cell viability | –
CC1CCC2C(=CCCC2(C)C)C1(C)CCC(CO)CCCc1ccoc1 (centres unmarked) [Halisulfate 7 alcohol (8), 5-furan-3-yl-2-[2-(1,2,5,5-tetramethyl-1,2,3,4,4a,5,6,7-octahydro-naphthalen-1-yl)-ethyl]-pentan-1-ol] | No activity at 75 μg/mL | – | No activity at 10 μg/mL | – | – | – | –
CC(=O)O[C@@H]1OC=C2[C@@H](OC(C)=O)C[C@H]3[C@]4(C)CC[C@@H]5C([C@H](C)CCC5(C)C)[C@H]4C[C@@H](O)[C@]3(C)[C@H]21 (some centres unmarked) [Heteronemin (13), 24,25-epoxy-17(24)-scalarene-12-ol-16,25-diacetate] | No activity at 100 μg/mL | 0.1 | 21% | increased cell viability | – | – | –
CCCCCCCC/C=C\CCCCCCCCOS(=O)(=O)O [oleyl sulfate, reference compound] | – | – | – | – | – | – | 400

— patent US6750247B2, “Sponge-derived terpenoids and methods of use” (Galileo Laboratories, Inc., priority 2001, dated 2004)
